23 compounds from patent US11504310B2, “Aqueous microemulsion” (Firmenich SA, priority 2017, dated 2022) can be followed below.

One series is described as follows: physchem.
Conditions: not given
`CCC1CCC(=O)O1` (racemic) [GAMMA HEXALACTONE, (+ −)-4-HEXANOLIDE]: the logP is 0.6.

Compound `CCOc1cc(C=O)ccc1O` [ETHYL VANILLIN, 3-ethoxy-4-hydroxybenzaldehyde] had a log partition coefficient (logP) of 1.58.

The next series in a line: logP of fragrance raw materials and fragrances.
Conditions: not given
Consider `CCCC(C)C(=O)OCC` (racemic) [(+ −)-ETHYL 2-METHYLPENTANOATE], for which the lipophilicity (logP) was found to be 2.76.

For the compound `CCCCCCC1CCC(=O)O1` (racemic) [DECALACTONE CP, (+ −)-4-DECANOLIDE], the lipophilicity (logP) amounted to 2.72. With `C=CC(C)CCCC(C)(C)O` (racemic) [DIHYDROMYRCENOL PURE, (+ −)-2,6-DIMETHYL-7-OCTEN-2-OL], the logP amounted to 3.47.

With `CC(=O)/C(C)=C/C1C(C)=CCCC1(C)C` (racemic) [ISORALDEINE 70 P, (+ −)-(3E)-3-methyl-4-(2,6,6-trimethyl-2-cyclohexen-1-yl)-3-buten-2-one], the logP was 4.84. For `CC1/C=C/CCCCCCCCCCC(=O)C1` (racemic) [MUSCENONE DELTA, (+ −)-(4E)-3-METHYL-4-CYCLOPENTADECEN-1-ONE], the log partition coefficient (logP) is 5.75. As for `CCCCCC1(C)CCC(C)(C)C1=O` (racemic) [VELOUTONE, (+ −)-2,2,5-trimethyl-5-pentylcyclopentanone], the log partition coefficient (logP) stood at 4.34. `Cc1ccc2c(c1)OCC(=O)CO2` [CALONE ®, 7-methyl-2H-1,5-benzodioxepin-3(4H)-one]: the lipophilicity (logP) is 2.43. Compound `CC(C)(O)CCC1CCCCC1` [CORANOL, 4-CYCLOHEXYL-2-METHYL-2-BUTANOL] returned a logP of 3.98.

For `O=C1CCCCCCCCCCCCCCO1` [EXALTOLIDE ®, oxacyclohexadecan-2-one], the log partition coefficient (logP) is 6.15. `CCOC(=O)CC1(C)OCCO1` [FRUCTONE ®, ETHYL 2-METHYL-1,3-DIOXOLANE-2-ACETATE] had a logP of 1.3. Regarding `CC(C)=CCCC(C)=CCO` [GERANIOL LJ], the log partition coefficient (logP) turned out to be 3.47. Take `COC(=O)/C=C/c1ccccc1` [METHYL CINNAMATE, METHYL (E)-3-PHENYL-2-PROPENOATE]: the logP is 2.62. In the case of `COC(=O)c1c(C)cc(O)c(C)c1O` [MOUSSE CRISTAL, METHYL 2,4-DIHYDROXY-3,6-DIMETHYLBENZOATE], the logP was determined as 3.22.

Consider `CC(C)=CC1CC(C)CCO1` (centres unmarked) [ROSE OXIDE, TETRAHYDRO-4-METHYL-2-(2-METHYL-1-PROPENYL)-2H-PYRAN], for which the log partition coefficient (logP) stood at 3.58.

As for `CCC(=O)OC1CC2CC1C1CC=CC21` (centres unmarked) [VERDYL PROPIONATE, TRICYCLO[5.2.1.0(2,6)]DEC-3-EN-8-YL PROPANOATE], the lipophilicity (logP) was 3.34.

The same series, now with this note: single raw materials of fragrances F1-F4 (Tables 1-4).
“1-OXA-12/13-CYCLOHEXADECEN-2-ONE [HABANOLIDE ®]”: the lipophilicity (logP) was 4.88. Compound 2/3-METHYLBUTYL ACETATE [AMYL ACETATE] showed a logP of 2.26. Take `CCC(=O)OCC(C)(C)O[C@@H](C)[C@@H]1CCCC(C)(C)C1` [HELVETOLIDE ®, (+)-(1S,1′R)-2[1-(3′,3′-DIMETHYL-1′-CYCLOHEXYL)ETHOXY]-2-METHYLPROPYL PROPANOATE]: the lipophilicity (logP) was found to be 5.51.

On to `CC1=CC(C)C(C=O)C(C)C1` (centres unmarked) [ISOCYCLOCITRAL], for which the logP is listed as 3.27. `OCCCc1ccccc1` [PHENYLPROPYL ALCOHOL, 3-PHENYL-1-PROPANOL] returned a logP of 1.88.

The compound “ALLYL (2/3-METHYLBUTOXY)ACETATE [ALLYL AMYL GLYCOLATE]” displayed a log partition coefficient (logP) of 2.34.

Broadly, the logP is a log measure of how a compound divides between an organic and an aqueous phase.
